Results from article PMC4822341 (Cell Discovery, 2015).

Columns and labels:
[1] = Insulin-tolerance test and plasma insulin level; conditions: 7 days
Description: DBA/1 mice (Taconic) were weighted just before the experiment. After 4 h fasting, mice were i.p. injected with 0.75 U kg^–1 of insulin (Huamlin R). Blood samples were taken from the tail at time 0 (before insulin injection), 15, 30, 45, 60, 90 and 120 min after injection. Plasma glucose levels were measured using an AlphaTrak glucose meter. All data were plotted as percent of glucose level at time 0. Endogenous insulin levels were measured using the Ultra Sensitive Mouse Insulin ELISA kit (Crystal Chem, Downers Groove, IL, USA).

[2] = molecular target: T1, MR (Homo sapiens, UniProt P08235); assay: MR reporter assay (off-target activity); type: cell-based; conditions: steroid 1 μM; percent of 1 μM corticosterone
T1 construct: expressed in transfected cells; host or cells: AD293
T1 sequence (P08235 1-984): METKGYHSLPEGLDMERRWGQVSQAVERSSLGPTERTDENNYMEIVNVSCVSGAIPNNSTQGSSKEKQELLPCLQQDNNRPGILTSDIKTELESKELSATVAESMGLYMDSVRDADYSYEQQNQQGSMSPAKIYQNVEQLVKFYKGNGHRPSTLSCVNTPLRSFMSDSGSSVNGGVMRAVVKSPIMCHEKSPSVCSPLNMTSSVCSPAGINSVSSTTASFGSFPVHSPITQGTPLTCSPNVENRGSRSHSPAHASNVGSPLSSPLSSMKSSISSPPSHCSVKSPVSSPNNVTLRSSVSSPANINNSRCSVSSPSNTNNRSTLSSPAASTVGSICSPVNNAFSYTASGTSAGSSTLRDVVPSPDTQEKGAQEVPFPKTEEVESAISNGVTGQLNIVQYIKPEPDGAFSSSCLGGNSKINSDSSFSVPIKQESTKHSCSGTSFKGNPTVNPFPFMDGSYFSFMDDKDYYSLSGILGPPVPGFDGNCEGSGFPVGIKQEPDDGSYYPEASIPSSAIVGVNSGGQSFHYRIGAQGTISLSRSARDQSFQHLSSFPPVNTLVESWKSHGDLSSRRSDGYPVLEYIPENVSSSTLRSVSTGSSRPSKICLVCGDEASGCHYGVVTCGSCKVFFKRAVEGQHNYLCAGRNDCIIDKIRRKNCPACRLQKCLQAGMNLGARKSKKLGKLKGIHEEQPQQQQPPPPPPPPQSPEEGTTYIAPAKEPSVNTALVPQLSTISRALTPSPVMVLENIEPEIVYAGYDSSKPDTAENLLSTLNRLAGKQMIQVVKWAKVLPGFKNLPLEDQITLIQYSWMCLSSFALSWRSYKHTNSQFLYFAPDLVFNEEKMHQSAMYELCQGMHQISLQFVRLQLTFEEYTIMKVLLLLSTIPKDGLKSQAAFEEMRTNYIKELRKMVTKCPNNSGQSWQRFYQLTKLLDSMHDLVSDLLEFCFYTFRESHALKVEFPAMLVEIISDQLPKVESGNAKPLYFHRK
Description: (§1) Similar to previous reports, for induction 100 ng pHHLuc (MMTV-Luc) plasmid, 0.1 ng pRShGR together with 5 ng phRGtkRenilla were transfected by X-tremeGENE 9 (Roche) into AD293 cells per well in 24-well plate. For transrepression, 10 ng AP-1-Luc or 10ng pNF-κB-luc, 100 ng pRShGR and 5 ng phRGtkRenilla were transfected into AD293 cells per well. We used the same transfection protocol for the MR and PR assays, except of the use of 0.1 ng MR or PR plasmid to substitute GR. One day after transfection, for induction, cells were directly treated by steroids for 16 h; for repression, cells were treated with either PMA at 0.6 ng ml^–1 (for AP-1 reporter) or TNFα at 2 ng ml^–1 (for NF-κB reporter), together with various steroids. Cells were collected by addition of 1× Passive Lysis Buffer (Promega, Madison, WI, USA), and luciferase activity was assayed by the Dual-Glo Luciferase system (Promega). Data were plotted as firefly luciferase activity normalized to Renilla luciferase activity in Relative Luciferase Units.

[3] = molecular target: T2, GR (Homo sapiens, UniProt P04150); assay: NF-κB-Luc repression reporter assay in AD293 cells; type: cell-based; conditions: TNFα 2 ng ml^-1
T2 construct: expressed in transfected cells; host or cells: AD293
T2 sequence (P04150 1-777): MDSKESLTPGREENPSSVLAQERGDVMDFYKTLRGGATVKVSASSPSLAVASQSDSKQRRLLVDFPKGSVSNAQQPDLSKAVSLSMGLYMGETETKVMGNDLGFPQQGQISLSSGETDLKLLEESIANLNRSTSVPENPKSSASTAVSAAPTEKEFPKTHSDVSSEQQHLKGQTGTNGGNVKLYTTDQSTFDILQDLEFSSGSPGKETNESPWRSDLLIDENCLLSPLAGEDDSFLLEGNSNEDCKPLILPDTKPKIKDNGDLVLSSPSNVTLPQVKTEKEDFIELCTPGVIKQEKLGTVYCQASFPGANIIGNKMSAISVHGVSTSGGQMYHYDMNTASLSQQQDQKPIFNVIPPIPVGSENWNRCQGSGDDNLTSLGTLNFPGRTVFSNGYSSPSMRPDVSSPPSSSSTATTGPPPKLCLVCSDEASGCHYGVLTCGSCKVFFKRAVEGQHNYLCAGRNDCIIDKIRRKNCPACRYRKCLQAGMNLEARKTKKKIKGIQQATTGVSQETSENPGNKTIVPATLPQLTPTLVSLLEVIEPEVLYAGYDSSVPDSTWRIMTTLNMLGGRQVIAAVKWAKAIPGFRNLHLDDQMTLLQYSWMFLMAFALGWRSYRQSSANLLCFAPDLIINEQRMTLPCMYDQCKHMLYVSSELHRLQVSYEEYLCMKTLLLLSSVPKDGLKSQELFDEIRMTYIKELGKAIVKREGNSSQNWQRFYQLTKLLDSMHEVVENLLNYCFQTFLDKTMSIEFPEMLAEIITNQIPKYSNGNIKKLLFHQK
Description: as §1
Error bars indicate SD, n=3.

[4] = molecular target: T2, GR; assay: MMTV-Luc induction reporter assay in AD293 cells; type: cell-based; conditions: 16 h
Description: as §1

[5] = test system: IL-6 release from A549 cells; assay: Cytokine inhibition assay, IL-6 release from A549 cells; type: cell-based; conditions: Homo sapiens, TNFα 2 ng ml^-1, read-out: IC50 (suppression of IL-6 release)
Description: A549 cells into 24-well plates were split at 40 000 cells/well. After 1 day growth, cells were treated with various steroids 1 h before overnight induction of inflammation by 2 ng ml^–1 TNFα according to literature. Sixteen hours after treatment, cell culture supernatants were subjected to anti-IL-6 Elisa (R&D Quantikine Elisa Human IL-6 Kit) according to the manual.

## CON(C)C(=O)C1(OC(=O)c2ccco2)C(C)CC2C3CC(F)C4=Cc5c(cnn5-c5ccccc5)CC4(C)C3(F)C(O)CC21C (stereo not drawn) [VSGC12]
[1]; 0.0625 mg kg^-1 daily
  insulin resistance in insulin-tolerance test: no longer induced insulin resistance
[1]; 0.25 mg kg^-1 daily
  insulin resistance in insulin-tolerance test: still caused insulin resistance, the resistance was much less severe than for FF
[2]
  MR activity: higher MR activity than VSG22 and FP, but a lower activity than MF and a similar activity (difference not statistically significant) as FF
[3]
  IC50: 0.08 nM
[4]
  EC50: 0.51 nM
[5]
  IC50: 0.05 nM
